# Measurements: US7148376B2, “Polymorphic forms of nateglinide” (Teva Pharmaceutical Industries Ltd., priority 2002, dated 2006)
# Entries after “also recorded” stand apart in the source; their conditions may differ.
# Tests used:
# [1] = Polymorphic stability on storage at room temperature (XRPD); type: physicochemical; settings: storage at room temperature and pressure for about a day
# Procedure: The various crystalline forms are also analyzed by Thermal Gravimetric Analysis (TGA). […] In contrast to the above listed forms, TGA profiles of forms L, P, U, α, δ and σ show no significant weight loss. These polymorphic forms of nateglinide are free of bound solvents, i.e., less than about 2% LOD. Table III lists the solvents used for the preparation for nateglinide solvated forms, as well as LOD values based on TGA analysis.
# Storage at room temperature and pressure may also cause a transition of one form to another.
# (§1) • X-Ray diffraction was performed on X-Ray powder diffractometer, Scintag®, variable goniometer, Cu-tube, solid state detector. Sample holder: A round standard aluminum sample holder with round zero background quartz plate. • The sample was put on the sample holder and immediately analyzed as is. • Scanning parameters: Range: 2–40 deg 2θ, Continuos Scan, Rate: 3 deg./min. DSC: • DSC821^e Mettler Toledo®, Sample weight: 3–5 mg, Heating rate: 10° C./min, Number of holes in the crucible: 3 TGA: • Mettler TG50®, Sample weight: 7–15 mg, Heating rate: 10° C./min FTIR: • Perkin-Elmer®, Spectrum One FTIR spectrometer, Range: 4000–400 cm−1, no. of scans: 16, resolution: 4.0 cm−1, DRIFT technique.
# [2] = Thermal stability: polymorphic form after drying or heating (XRPD); type: physicochemical; settings: for crystal form obtained upon drying: drying by heating under ambient or reduced pressure, generally about 40° C. to about 80° C.
# Procedure: The various crystalline forms are related to each other in that drying of one form may result in a transformation to another form, namely nateglinide Forms A, B, D, E, F, G, H, I, J, K, L, M, N, Q, S, T, V, Z, α, β, δ, γ, ε, θ and Ω. The drying is carried out by heating a sample under ambient or reduced pressure. Generally, a preferred temperature is from about 40° C. to about 80° C., more preferably under reduced pressure. […] The term “stable” as used herein refers to a polymorphic change of less than about 5% by weight, more preferably less than about 2%, particularly for Form δ.
# as §1
# Sample of nateglinide form U (˜1 g) was introduced into a 6-gram vial and heated over 8.5 h in a 100° C. oil bath. The vial were extracted from the bath.
# Sample of nateglinide form U (˜0.5 g) was heated to 120° C. for 1 h in an atmospheric pressure.
# Sample of nateglinide form δ (˜0.5 g) was heated to 120° C. for 1 h in an atmospheric pressure.
# [3] = Exposure of nateglinide Form H to solvent vapors; type: physicochemical; settings: vapors of water and acetone, room temperature
# Procedure: Some of the crystalline forms are obtained by absorption of solvent vapors. Nateglinide is contacted with vapors of a particular solvent, resulting in absorption of the solvent. Absorption of ethanol results in Form D, methanol in Form O, and DCM in Form Y. Form H was stable in the presence of vapors of water and acetone.
# Nateglinide (3.50 g) was added to a polypropylene can and weighed. The can was introduced into a bigger polypropylene container containing a solvent, and stored at room temperature. The can was removed from the container and weighed (Wfinal). The can content was divided into 2 portions. One portion was dried at a temperature of 55° C. and a pressure of 20–30 mmHg to constant weight (±0.01 g).
# [4] = cited from earlier work
compound,measurement,setting,value
"CC(C)[C@H]1CC[C@H](C(=O)N[C@H](Cc2ccccc2)C(=O)O)CC1 [Form A, nateglinide]",transition of one form to another on storage,[1]; listed as A,partially converts to Form B
same,crystal form obtained upon drying,[2]; listed as A,convert to Form B
"CC(C)[C@H]1CC[C@H](C(=O)N[C@H](Cc2ccccc2)C(=O)O)CC1 [Form B, nateglinide]",thermal stability (conversion to another form upon heating),[2],thermally stable
"CC(C)[C@H]1CC[C@H](C(=O)N[C@H](Cc2ccccc2)C(=O)O)CC1 [Form C, nateglinide]",crystal form obtained upon drying,[2]; listed as C,convert to Form B
"CC(C)[C@H]1CC[C@H](C(=O)N[C@H](Cc2ccccc2)C(=O)O)CC1 [Form D, nateglinide]",crystal form obtained upon drying,[2]; listed as D,convert to Form B
"CC(C)[C@H]1CC[C@H](C(=O)N[C@H](Cc2ccccc2)C(=O)O)CC1 [Form E, nateglinide]",crystal form obtained upon drying,[2]; listed as E,convert to Form B
"CC(C)[C@H]1CC[C@H](C(=O)N[C@H](Cc2ccccc2)C(=O)O)CC1 [Form G, nateglinide]",crystal form obtained upon drying,[2]; listed as G,convert to Form B
"CC(C)[C@H]1CC[C@H](C(=O)N[C@H](Cc2ccccc2)C(=O)O)CC1 [Form H, nateglinide]",stability in the presence of solvent vapors,[3],stable
same,thermal stability (conversion to another form upon heating),[2],thermally stable
"CC(C)[C@H]1CC[C@H](C(=O)N[C@H](Cc2ccccc2)C(=O)O)CC1 [Form I, nateglinide]",transition of one form to another on storage,[1]; listed as I,converts to Form L
"CC(C)[C@H]1CC[C@H](C(=O)N[C@H](Cc2ccccc2)C(=O)O)CC1 [Form J, nateglinide]",crystal form obtained upon drying,[2]; listed as J,convert to Form B
"CC(C)[C@H]1CC[C@H](C(=O)N[C@H](Cc2ccccc2)C(=O)O)CC1 [Form K, nateglinide]",crystal form obtained upon drying,[2]; listed as K,convert to Form B
"CC(C)[C@H]1CC[C@H](C(=O)N[C@H](Cc2ccccc2)C(=O)O)CC1 [Form L, nateglinide]",thermal stability (conversion to another form upon heating),[2],thermally stable
"CC(C)[C@H]1CC[C@H](C(=O)N[C@H](Cc2ccccc2)C(=O)O)CC1 [Form O, nateglinide]",thermal stability (conversion to another form upon heating),[2],somewhat stable
"CC(C)[C@H]1CC[C@H](C(=O)N[C@H](Cc2ccccc2)C(=O)O)CC1 [Form Q, nateglinide]",transition of one form to another on storage,[1]; listed as Q,converts to Form Y (containing chloroform)
same,crystal form obtained upon drying,[2]; listed as Q,convert to Form B
"CC(C)[C@H]1CC[C@H](C(=O)N[C@H](Cc2ccccc2)C(=O)O)CC1 [Form T, nateglinide]",transition of one form to another on storage,[1]; listed as T,converts to Form E
same,crystal form obtained upon drying,[2]; listed as T,convert to Form B; also recorded: mixture of Form B and G
"CC(C)[C@H]1CC[C@H](C(=O)N[C@H](Cc2ccccc2)C(=O)O)CC1 [Form U, nateglinide]",thermal stability (conversion to another form upon heating),[2],thermally stable
same,crystal form after heating at about 100° C.,"[2]; 100° C. oil bath, 8.5 h, XRPD",does not undergo a transition; also recorded: Form U
same,crystal form after heating to 120° C. for 1 h,"[2]; 120° C., 1 h, atmospheric pressure, XRPD",Form U
"CC(C)[C@H]1CC[C@H](C(=O)N[C@H](Cc2ccccc2)C(=O)O)CC1 [Form Y, nateglinide]",thermal stability (conversion to another form upon heating),[2],somewhat stable
"CC(C)[C@H]1CC[C@H](C(=O)N[C@H](Cc2ccccc2)C(=O)O)CC1 [Form Z, nateglinide]",crystal form obtained upon drying,[2]; listed as Z,convert to Form B
"CC(C)[C@H]1CC[C@H](C(=O)N[C@H](Cc2ccccc2)C(=O)O)CC1 [Form Ω, nateglinide]",crystal form after drying at 50° C. in a vacuum oven overnight,"[2]; 50° C., vacuum oven, overnight, XRD",mixture of Form omega and Form Z
same,crystal form obtained upon drying,[2]; listed as Ω,convert to Form B
"CC(C)[C@H]1CC[C@H](C(=O)N[C@H](Cc2ccccc2)C(=O)O)CC1 [Form α, nateglinide]",thermal stability (conversion to another form upon heating),[2],somewhat stable
same,crystal form obtained upon drying,[2]; listed as α,convert to Form B
"CC(C)[C@H]1CC[C@H](C(=O)N[C@H](Cc2ccccc2)C(=O)O)CC1 [Form β, nateglinide]",crystal form obtained upon drying,[2]; listed as β,convert to Form B
"CC(C)[C@H]1CC[C@H](C(=O)N[C@H](Cc2ccccc2)C(=O)O)CC1 [Form δ, nateglinide]",thermal stability (conversion to another form upon heating),[2],somewhat stable
same,crystal form after heating at 120° C.,"[2]; 120° C., 1 atmosphere, 1 h, XRPD",Form B
same,crystal form obtained upon drying,[2]; listed as δ,convert to Form B
same,polymorphic form after drying in a fluidized bed drier,"[2]; fluidized bed drier, 4 hours at 60° C.",delta
same,polymorph after drying in a stirred reactor,"[2]; stirred reactor 7–10 rpm, 60 mmHg vacuum, 60° C., 6 hours",remained delta form
"CC(C)[C@H]1CC[C@H](C(=O)N[C@H](Cc2ccccc2)C(=O)O)CC1 [Form θ, nateglinide]",crystal form obtained upon drying,[2]; listed as θ,convert to Form B
"CC(C)[C@H]1CC[C@H](C(=O)N[C@H](Cc2ccccc2)C(=O)O)CC1 [Form σ, nateglinide]",thermal stability (conversion to another form upon heating),[2],thermally stable
"CC(C)[C@H]1CC[C@H](C(=O)N[C@H](Cc2ccccc2)C(=O)O)CC1 [acetonitrile solvate of Form Epsilon, nateglinide]",crystal form obtained upon drying,[2],Form B
"CC(C)[C@H]1CC[C@H](C(=O)N[C@H](Cc2ccccc2)C(=O)O)CC1 [nateglinide, (−)-N-(trans-4-isopropylcyclohexanecarbonyl)-D-Phenylalanine]",solubility in acetonitrile,[4]; acetonitrile,sparingly soluble
same,solubility in chloroform,[4]; chloroform,freely soluble
same,solubility in ethanol,[4]; ethanol,freely soluble
same,solubility in ether,[4]; ether,soluble
same,solubility in methanol,[4]; methanol,freely soluble
same,solubility in octanol,[4]; octanol,sparingly soluble
same,solubility in water,[4]; water,practically insoluble
"CC(C)[C@H]1CC[C@H](C(=O)N[C@H](Cc2ccccc2)C(=O)O)CC1 [nitromethane solvates of Form Epsilon, nateglinide]",crystal form obtained upon drying,[2],Forms H or P
